Data from patent US10856562B2, “Flavor composition and edible compositions containing same” (MARS, INCORPORATED, priority 2013, dated 2020).
Square brackets hold non-standard residues; d marks the D form. Ends that are not written are not given here. pGlu = O=C1CC[C@@H](C(=O)O)N1

Tested on: panelists
Assay: Consensus attribute scores of flavor enhancers in Uncle Ben's Garden Vegetable Ready rice
Format: in vivo, human
Parameters: key to Cooked White Rice / Vegetable Oil / Vegetable Complex / Cooked Green Vegetable / Cooked Corn / Sweet (BASIC TASTES) / Salt (BASIC TASTES) / Mouthdrying (Texture) / Residual Mouthcoating (Texture) / Total Aromatics / Bitter (BASIC TASTES): 15-point scale, 0 = none, 15 = very strong
Details: for Black Pepper / Cooked Corn / Cooked Green Vegetable / Cooked White Rice / Dehydrated onion/garlic / HVP/Brothy / Heat (Chemical Feeling Factors) / Mineral/Flint / Mouthdrying (Texture) / Residual Mouthcoating (Texture) / Salt (BASIC TASTES) / Sweet (BASIC TASTES) / Total Aromatics / Umami (Chemical Feeling Factors) / Vegetable Complex / Vegetable Oil / Bitter (BASIC TASTES) / Salt Burn (Chemical Feeling Factors): rice
Procedure: Descriptive attributes (e.g., taste, flavor and chemical feeling factors) of three use levels of pGlu-Cys (FE-35), pGlu-Cys-Gly (FE-36), pGlu-Cys-Cys (FE-37), pGlu-Cys-Val (FE-38) and pGlu-Val-Cys (UE-30) flavor composition peptides were determined. The three use levels were as follows: 1.0 ppb, 10.0 ppb and 100.0 ppb.
Data was collected for the attributes of the product in-mouth for the use levels according to the following protocol: • The samples were analyzed for flavor by six to nine members of a panel, trained and experienced in flavor evaluation using the Spectrum™ method. Samples were evaluated across multiple panel sessions. • The strength of each attribute was rated on a 15-point scale, where 0=none and 15=very strong. • This scale incorporates the ability to use tenths of a point and therefore has the potential of 150 scale differentiations. • The scale may be expanded beyond 15 points to include extreme ratings if necessary.
Preparation of Rice Samples • Each flavor enhancer was tested in Uncle Ben's Garden Vegetable Ready rice matrix at 3 different concentrations: 1 ppb, 10 ppb and 100 ppb. A total of 15 points with flavor enhancers were prepared for sensory evaluation. Additionally, 15 control samples were prepared. Each point had 2 samples (test and control) and was made from one pouch of rice. • Directions to prepare the solutions: • The 15 ready- to eat pouches were microwaved according to the procedure found on the back of the pouch: (1) squeeze pouch to separate rice, (2) tear two inches to vent, (3) heat on High for 90 seconds and (4) remove from microwave using COOL TOUCH area on untorn side. • From each pouch 124.75 g (test sample) and 99.8 g (control) were weighed out. The test sample had the flavor enhancer and/or salt. The control sample only had salt added. • The flavor enhancer and/or salt (non-iodized salt) were weighed in a soufflé cup. The weighed amount of flavor enhancer and/or salt was added to the sub-sampled rice. The rice was stirred and mixed to evenly distribute the salt added. • Some rice was placed back into the soufflé cup, sealed, and the cup was shook to get the flavor enhancer and/or salt that may have been stuck on the walls of the soufflé cup. After shaking the soufflé cup, the rice was added back to the original sub-sampled rice and stirred/mixed again. • Each sample (test and control) was microwaved for another 30 seconds (or until warm) to ensure that the salts/compounds were going completely into the solutions. • All samples (test and control) were tasted at the same temperature. • Each test sample had 0.2% NaCl added and flavor enhancers at the specified concentrations.
A summary of the concentrations of NaCl and flavor composition peptides in the rice samples is described in table 23. The first value of each cell represents a single sample amount of an ingredient in milligrams, and the second number in parenthesis is a doubling of the ingredient (in grams) for use in a doubled size sample.
The panelists evaluated each sample for the attributes described by table 25.

Substance: [pGlu]-Cys [FE-35]
- Umami feeling factor in rice compared to the Control (10 & 100 ppb): higher
- Salt in rice compared to the Control (100 ppb): saltier than the Control
- Heat in rice, not seen in the Control (all concentrations): low level
- Cooked green vegetable in rice compared to the Control (all samples (1, 10, 100 ppb)): low level of cooked green vegetable
- Mouthdrying in rice, not seen in the Control (all samples (1, 10, 100 ppb)): low level
- Total aromatics in rice (at 50 ppm): slightly lower
- Black Pepper (1.0 ppb (5 ppm)): 1.0
- Cooked Corn (1.0 ppb (5 ppm)): 0.5
- Cooked Green Vegetable (1.0 ppb (5 ppm)): 0.5
- Cooked White Rice (1.0 ppb (5 ppm)): 3.0
- Dehydrated onion/garlic (1.0 ppb (5 ppm)): 0.8
- HVP/Brothy (1.0 ppb (5 ppm)): 1.0
- Heat (Chemical Feeling Factors) (1.0 ppb (5 ppm)): 0.8
- Mineral/Flint (1.0 ppb (5 ppm)): 0.8
- Mouthdrying (Texture) (1.0 ppb (5 ppm)): 1.5
- Residual Mouthcoating (Texture) (1.0 ppb (5 ppm)): 1.0
- Salt (BASIC TASTES) (1.0 ppb (5 ppm)): 13.0
- Sweet (BASIC TASTES) (1.0 ppb (5 ppm)): 3.5
- Total Aromatics (1.0 ppb (5 ppm)): 6.3
- Umami (Chemical Feeling Factors) (1.0 ppb (5 ppm)): 1.0
- Vegetable Complex (1.0 ppb (5 ppm)): 1.0
- Vegetable Oil (1.0 ppb (5 ppm)): 0.5
- Black Pepper (10.0 ppb (50 ppm)): 0.8
- Cooked Corn (10.0 ppb (50 ppm)): 0.8
- Cooked Green Vegetable (10.0 ppb (50 ppm)): 0.8
- Cooked White Rice (10.0 ppb (50 ppm)): 3.0
- Dehydrated onion/garlic (10.0 ppb (50 ppm)): 0.8
- HVP/Brothy (10.0 ppb (50 ppm)): 1.0
- Heat (Chemical Feeling Factors) (10.0 ppb (50 ppm)): 0.5
- Mineral/Flint (10.0 ppb (50 ppm)): 1.3
- Mouthdrying (Texture) (10.0 ppb (50 ppm)): 1.0
- Residual Mouthcoating (Texture) (10.0 ppb (50 ppm)): 1.0
- Salt (BASIC TASTES) (10.0 ppb (50 ppm)): 13.5
- Sweet (BASIC TASTES) (10.0 ppb (50 ppm)): 3.5
- Total Aromatics (10.0 ppb (50 ppm)): 6.0
- Umami (Chemical Feeling Factors) (10.0 ppb (50 ppm)): 3.0
- Vegetable Complex (10.0 ppb (50 ppm)): 1.3
- Vegetable Oil (10.0 ppb (50 ppm)): 0.5
- Black Pepper (100 ppb (50 ppm)): 1.0
- Cooked Corn (100 ppb (50 ppm)): 0.8
- Cooked Green Vegetable (100 ppb (50 ppm)): 0.8
- Cooked White Rice (100 ppb (50 ppm)): 3.0
- Dehydrated onion/garlic (100 ppb (50 ppm)): 1.0
- HVP/Brothy (100 ppb (50 ppm)): 1.0
- Heat (Chemical Feeling Factors) (100 ppb (50 ppm)): 0.5
- Mineral/Flint (100 ppb (50 ppm)): 1.0
- Mouthdrying (Texture) (100 ppb (50 ppm)): 1.0
- Residual Mouthcoating (Texture) (100 ppb (50 ppm)): 1.0
- Salt (BASIC TASTES) (100 ppb (50 ppm)): 15.0
- Sweet (BASIC TASTES) (100 ppb (50 ppm)): 3.5
- Total Aromatics (100 ppb (50 ppm)): 6.5
- Umami (Chemical Feeling Factors) (100 ppb (50 ppm)): 4.0
- Vegetable Complex (100 ppb (50 ppm)): 1.5
- Vegetable Oil (100 ppb (50 ppm)): 0.8

Substance: [pGlu]-Cys-Cys (cysteine pairing not given here) [FE-37]
- Bitter in rice (all samples (1, 10, 100 ppb)): low in bitter
- Cooked green vegetable in rice compared to the Control (all samples (1, 10, 100 ppb)): low level of cooked green vegetable
- Mineral/flint note in rice, not seen in the Control (all samples (1, 10, 100 ppb)): low mineral/flint note
- Mouthdrying in rice, not seen in the Control (all samples (1, 10, 100 ppb)): have mouthdrying
- Salt burn feeling factor in rice compared to the Control (all samples (1, 10, 100 ppb)): higher
- Salt in rice compared to the Control (all samples (1, 10, 100 ppb)): saltier than the Control
- Umami feeling factor in rice compared to the Control (all samples (1, 10, 100 ppb)): higher
- Bitter (BASIC TASTES) (1.0 ppb (5 ppm)): 0.8
- Black Pepper (1.0 ppb (5 ppm)): 1.0
- Cooked Corn (1.0 ppb (5 ppm)): 0.5
- Cooked Green Vegetable (1.0 ppb (5 ppm)): 0.5
- Cooked White Rice (1.0 ppb (5 ppm)): 3.0
- Dehydrated onion/garlic (1.0 ppb (5 ppm)): 1.3
- HVP/Brothy (1.0 ppb (5 ppm)): 1.0
- Mineral/Flint (1.0 ppb (5 ppm)): 0.8
- Mouthdrying (Texture) (1.0 ppb (5 ppm)): 1.0
- Residual Mouthcoating (Texture) (1.0 ppb (5 ppm)): 1.0
- Salt (BASIC TASTES) (1.0 ppb (5 ppm)): 15.0
- Salt Burn (Chemical Feeling Factors) (1.0 ppb (5 ppm)): 0.8
- Sweet (BASIC TASTES) (1.0 ppb (5 ppm)): 3.0
- Total Aromatics (1.0 ppb (5 ppm)): 6.0
- Umami (Chemical Feeling Factors) (1.0 ppb (5 ppm)): 1.5
- Vegetable Complex (1.0 ppb (5 ppm)): 1.0
- Vegetable Oil (1.0 ppb (5 ppm)): 0.8
- Bitter (BASIC TASTES) (10.0 ppb (50 ppm)): 1.5
- Black Pepper (10.0 ppb (50 ppm)): 1.0
- Cooked Corn (10.0 ppb (50 ppm)): 0.5
- Cooked Green Vegetable (10.0 ppb (50 ppm)): 0.5
- Cooked White Rice (10.0 ppb (50 ppm)): 3.0
- Dehydrated onion/garlic (10.0 ppb (50 ppm)): 1.5
- HVP/Brothy (10.0 ppb (50 ppm)): 1.5
- Mineral/Flint (10.0 ppb (50 ppm)): 0.8
- Mouthdrying (Texture) (10.0 ppb (50 ppm)): 1.5
- Residual Mouthcoating (Texture) (10.0 ppb (50 ppm)): 1.0
- Salt (BASIC TASTES) (10.0 ppb (50 ppm)): 15.5
- Salt Burn (Chemical Feeling Factors) (10.0 ppb (50 ppm)): 1.3
- Sweet (BASIC TASTES) (10.0 ppb (50 ppm)): 3.5
- Total Aromatics (10.0 ppb (50 ppm)): 6.5
- Umami (Chemical Feeling Factors) (10.0 ppb (50 ppm)): 2.5
- Vegetable Complex (10.0 ppb (50 ppm)): 1.0
- Vegetable Oil (10.0 ppb (50 ppm)): 0.8
- Bitter (BASIC TASTES) (100 ppb (50 ppm)): 1.0
- Black Pepper (100 ppb (50 ppm)): 1.0
- Cooked Corn (100 ppb (50 ppm)): 0.8
- Cooked Green Vegetable (100 ppb (50 ppm)): 0.8
- Cooked White Rice (100 ppb (50 ppm)): 3.0
- Dehydrated onion/garlic (100 ppb (50 ppm)): 1.5
- HVP/Brothy (100 ppb (50 ppm)): 1.5
- Mineral/Flint (100 ppb (50 ppm)): 1.0
- Mouthdrying (Texture) (100 ppb (50 ppm)): 1.5
- Residual Mouthcoating (Texture) (100 ppb (50 ppm)): 1.0
- Salt (BASIC TASTES) (100 ppb (50 ppm)): 16.0
- Salt Burn (Chemical Feeling Factors) (100 ppb (50 ppm)): 1.8
- Sweet (BASIC TASTES) (100 ppb (50 ppm)): 3.5
- Total Aromatics (100 ppb (50 ppm)): 6.5
- Umami (Chemical Feeling Factors) (100 ppb (50 ppm)): 3.0
- Vegetable Complex (100 ppb (50 ppm)): 1.5
- Vegetable Oil (100 ppb (50 ppm)): 0.8
